Measured values from PMC9233675, “Ru(II) photocages enable precise control over enzyme activity with red light” (Nature Communications, 2022).
Values joined by “and” are separate entries in the source; they are usually repeats but may differ in a detail not shown here. Equal values may be shown once. Read-outs that look alike come from different tables or passages of the source.

Experiments:
CYP19A1 = target: T1, CYP19A1 (Homo sapiens, UniProt P11511); experiment: In cell activity assay for CYP19A1 (dibenzylfluorescein conversion, HEK293 T-Rex cells); assay type: cell-based; settings: for SI (1B1:19A1): ratio of IC50 CYP19A1 to CYP1B1, for complexes 4–6 IC50 (light); for % Enzyme Activity: CYP19A1, dark
T1 sequence (P11511 1-503): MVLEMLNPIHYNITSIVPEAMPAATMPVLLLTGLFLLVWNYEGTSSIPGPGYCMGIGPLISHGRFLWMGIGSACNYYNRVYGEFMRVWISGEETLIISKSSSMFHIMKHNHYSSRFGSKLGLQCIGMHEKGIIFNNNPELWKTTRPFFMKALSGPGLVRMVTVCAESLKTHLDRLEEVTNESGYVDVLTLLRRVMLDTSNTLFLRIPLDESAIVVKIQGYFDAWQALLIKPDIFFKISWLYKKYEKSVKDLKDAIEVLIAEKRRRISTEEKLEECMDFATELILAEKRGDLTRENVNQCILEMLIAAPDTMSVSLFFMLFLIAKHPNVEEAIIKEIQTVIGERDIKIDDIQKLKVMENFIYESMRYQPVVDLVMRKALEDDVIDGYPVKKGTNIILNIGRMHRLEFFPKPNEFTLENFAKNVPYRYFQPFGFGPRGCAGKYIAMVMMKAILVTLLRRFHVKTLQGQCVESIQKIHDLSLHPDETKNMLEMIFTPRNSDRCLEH
Experimental: Thus, the activity against CYP19A1 was evaluated using a recently developed in-cell fluorometric assay.
REE or DBF was added as described above.

[1] = tested on: cytochrome P450 enzymes in phLMs; experiment: Inhibition of cytochrome P450 enzymes in pooled human liver microsomes (phLM); assay type: biochemical; settings: for SI (1B1:phLM): ratio of IC50 phLM to CYP1B1, for complexes 4–6 IC50 (light); for enzyme activity pHLM: dark, scale 0–100
Source text: (§1) Pooled human liver microsomes were used to test the potential impact of the inhibitors on multiple polymorphisms of highly promiscuous, drug metabolizing CYPs[27]. There are more than 10 different CYPs in this preparation, and the use of pooled microsomes ensures that genetic variability in CYPs is represented. […] This is notable, as the liver CYPs have evolved to bind the widest possible variety of molecules.
(§2) Commercial preparations of pooled human liver microsomes come from 50 individuals, providing representation of biologically relevant CYP variants. Compounds were screened for inhibition of cytochrome P450 enzymes in phLMs using a 96-well kinetic assay. […] Compound stocks were diluted in dose–response, and added in 100 mM potassium phosphate buffer pH 7.8 with 50 µM 7-benzoyloxy-4-trifluoromethylcoumarin (Corning, prepared as a 10 mM DMSO stock) and 16 µg of phLMs (XenoTech, prepared as 20 mg protein/mL suspended in 250 mM sucrose) per well (n = 3). The compounds were incubated for 5 min in the absence of light at 25 °C. The 96-well plate was then either protected from light or irradiated with red light for 1 h (660 nm, 58.7 J/cm^2). Enzymatic turnover was initiated upon addition of NADPH (TCI, prepared immediately prior to addition) at a concentration 1.2 mM per well. To determine background fluorescence from the assay, NADPH was omitted from several control wells. The reactions were immediately placed in a SpectraFluor Plus plate reader (Tecan) preheated to 37 °C, and fluorescence measurements taken every 3 min for 120 min with excitation of 435 nm and emission of 525 nm. Fluorescence measurements in the […], and the data was processed with GraphPad Prism 6. The linear portion of the signal for each dose point with respect to time was first fitted to a line to determine the rate. The resulting slope of these lines was then plotted against the logarithmic concentration of the study compound to provide a dose–response curve.

CYP1B1 S269A = target: T2, CYP1B1 S269A (Homo sapiens, UniProt Q16678, S269A); experiment: In cell CYP1B1 activity assay, S269A variant; settings: for logSI S269A: log of the ratio of IC50 values mutant vs WT (Fig. 3c)
T2 sequence (Q16678 1-543 S269A): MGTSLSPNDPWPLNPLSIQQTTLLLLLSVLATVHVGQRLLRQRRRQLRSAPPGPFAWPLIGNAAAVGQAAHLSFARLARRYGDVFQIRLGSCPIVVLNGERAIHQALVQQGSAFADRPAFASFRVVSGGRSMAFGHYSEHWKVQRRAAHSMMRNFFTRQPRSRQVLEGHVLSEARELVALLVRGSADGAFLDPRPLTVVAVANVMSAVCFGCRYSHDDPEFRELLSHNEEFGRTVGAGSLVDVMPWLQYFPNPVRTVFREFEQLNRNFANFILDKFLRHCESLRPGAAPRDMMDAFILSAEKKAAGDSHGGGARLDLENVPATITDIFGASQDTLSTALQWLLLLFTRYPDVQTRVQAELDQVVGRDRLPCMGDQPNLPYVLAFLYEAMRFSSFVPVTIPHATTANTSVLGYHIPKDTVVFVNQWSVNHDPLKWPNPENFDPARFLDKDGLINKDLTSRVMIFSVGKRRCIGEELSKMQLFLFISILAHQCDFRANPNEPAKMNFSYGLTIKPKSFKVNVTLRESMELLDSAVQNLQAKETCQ

[2] = Cellular viability (resazurin to resorufin, 72 h); assay type: cell-based, human; settings: human, parental HEK293 T-Rex cells, HEK293 T-Rex, after 72 hrs; for viability at 72 h, 1.11 μM: Log Conc 0.045757; for viability at 72 h, 3.33 μM: Log Conc 0.522879; for viability at 72 h, 30 μM: Log Conc 1.47712; for viability at 72 h, 0.37 μM: Log Conc -0.43136; for viability at 72 h, 0.123 μM: Log Conc -0.90849; for viability at 72 h, 0.0412 μM: Log Conc -1.38561; for viability at 72 h, 0.0137 μM: Log Conc -1.86273
Experimental: (§3) The cells were >70% viable at 72 h with 10 μM compound, as quantified by metabolically active cells determined by the conversion of resazurin to resorufin (Supplementary Figs. 18–20).
(§4) The parental HEK T-Rex cell line was maintained as above, in the absence of Zeocin. Compounds were serially diluted in media, and the cells were dosed from 0–30 μM compound, and then incubated at 37 °C (n = 3). […] The cells were incubated with the compound in the dark for 30 min prior to light exposure, using the same parameters as in the enzyme activity assay, and then treated as above.

HEK293 T-Rex cell line = experiment: Cellular viability (resazurin to resorufin, 72 h); assay type: cell-based, human; settings: HEK293 T-Rex, after 72 hrs
Experimental: as §3, §4

[3] = tested on: cytochrome P450 enzymes in pooled human liver microsomes; experiment: Inhibition of cytochrome P450 enzymes in pooled human liver microsomes (phLM); assay type: biochemical; settings: human, pooled human liver microsomes, pH 7.8, probe 7-benzoyloxy-4-trifluoromethylcoumarin, 50 µM; Dark; conversion of 7-benzoyloxy-4-trifluoromethylcoumarin
Source text: as §1, §2

[4] = Dark, conversion of dibenzylfluorescein (DBF), read-out: IC50 CYP19A1 Dark
[5] = Light: 660 nm, 58.7 J/cm^2, DBF, read-out: IC50 CYP19A1 Light
[6] = Dark, conversion of 7-benzoyloxy-4-trifluoromethylcoumarin, read-out: IC50 phLM Dark
[7] = Light: 660 nm, 58.7 J/cm^2, read-out: IC50 phLM Light

Structure (SMILES)	IC50 (CYP19A1; [4])	IC50 (CYP19A1; [5])	SI (1B1:19A1) (CYP19A1)	SI (1B1:phLM) [1]	logSI S269A (CYP1B1 S269A)	viability at 72 h, 1.11 μM [2]	viability at 72 h, 30 μM [2]	viability at 72 h, 0.37 μM [2]	viability at 72 h, 0.123 μM [2]	viability at 72 h, 0.0412 μM [2]	viability at 72 h, 0.0137 μM [2]	% Viable (HEK293 T-Rex cell line; Log Conc 0.045757)	% Viable (HEK293 T-Rex cell line; Log Conc 0.522879)	% Viable (HEK293 T-Rex cell line; Log Conc 1)	% Viable (HEK293 T-Rex cell line; Log Conc 1.47712)	% Viable (HEK293 T-Rex cell line; Log Conc -0.43136)	% Viable (HEK293 T-Rex cell line; Log Conc -0.90849)	% Viable (HEK293 T-Rex cell line; Log Conc -1.38561)	% Viable (HEK293 T-Rex cell line; Log Conc -1.86273)	IC50 [3]	other results
COc1ccc(/C=C/c2cc[n+]([Ru-4]345([n+]6ccccc6-c6cccc([n+]63)-c3cccc[n+]34)[n+]3c(cc(C(=O)[O-])c4ccccc43)-c3cc(C(=O)[O-])c4ccccc4[n+]35)cn2)c(OC)c1 [Compound 5]	28.3 µM	11.2 µM	660	∼1750	–	–	–	–	–	–	–	–	–	–	–	–	–	–	–	–	impact on CYP19A1 (CYP19A1; at concentrations ≥10 μM (so in the source)): no impact; IC50 [1, 6]: > 30 µM; IC50 [1, 7]: ~30 µM
COc1cc(/C=C/c2ccc(OC)cc2OC)cc(OC)c1 [Compound 1, reference compound]	> 30 µM	–	–	–	0.3	91.2%	68.4%	98.9%	98.4%	97.1%	99.3%	81.8963% and 90.1938%	71.5944% and 78.1539%	79.5836% and 68.5529%	62.2316% and 63.1567%	95.7862% and 89.6612%	94.8612% and 92.8008%	93.2073% and 97.8887%	106.593% and 96.3469%	11000 nM	viability at 72 h, 3.33 μM [2]: 76.6%
COc1ccc(C=Cc2ccncc2)c(OC)c1 [Compound 3]	14.4 µM	–	–	–	0.8	96.6%	140%	92.3%	93.3%	90.3%	103%	97.2552% and 97.1817%	116.518% and 106.568% and 128.158%	141.882% and 148.217% and 166.23%	142.875% and 157.603%	103.982% and 85.443%	97.2307% and 93.9713%	97.0469% and 84.1196%	98.309% and 101.936%	334 nM	–
COc1ccc(/C=C/c2cc[n+]([Ru-4]345([n+]6ccccc6-c6cccc([n+]63)-c3cccc[n+]34)[n+]3c(cc(C(=O)[O-])c4ccccc43)-c3cc(C(=O)[O-])c4ccccc4[n+]35)cc2)c(OC)c1 [Compound 6]	> 30 µM	18.8 µM	62,800	4300	–	–	–	–	–	–	–	–	–	–	–	–	–	–	–	–	% Enzyme Activity (CYP19A1; Log Conc 0.045757): 105.406% and 101.538% and 104.022%; % Enzyme Activity (CYP19A1; Log Conc 0.522879): 104.302% and 98.6869% and 100.038%; % Enzyme Activity (CYP19A1; Log Conc 1): 98.3957% and 97.4287% and 99.555%; % Enzyme Activity (CYP19A1; Log Conc 1.47712): 84.792% and 87.3743% and 76.9903%; % Enzyme Activity (CYP19A1; Log Conc -0.43136): 108.571% and 102.071% and 105.115%; % Enzyme Activity (CYP19A1; Log Conc -0.90849): 106.835% and 107.302% and 104.318%; % Enzyme Activity (CYP19A1; Log Conc -1.38561): 104.082% and 105.269% and 104.335%; % Enzyme Activity (CYP19A1; Log Conc -1.86273): 107.692% and 92.0059% and 100.302%; IC50 [1, 6]: ~30 µM; IC50 [1, 7]: 1.28 µM; enzyme activity pHLM ([1]; Log conc 0.273001): 89.9976; enzyme activity pHLM ([1]; Log conc 0.875061): 84.6565; enzyme activity pHLM ([1]; Log conc 1.47712): 45.9092; enzyme activity pHLM ([1]; Log conc -0.329059): 93.178; enzyme activity pHLM ([1]; Log conc -0.931119): 88.2981; enzyme activity pHLM ([1]; Log conc -1.53318): 91.697; enzyme activity pHLM ([1]; Log conc -2.13524): 93.7121
COc1ccc(/C=C/c2ccncn2)c(OC)c1 [Compound 2]	10.7 µM	–	–	16	0	97.3%	51.9%	85.2%	89.2%	92%	93.4%	94.5248% and 84.1248%	84.1669% and 88.3577%	69.8564% and 78.2941%	51.1449% and 56.2608%	92.2822% and 92.2261%	98.0989% and 92.2261%	94.0623% and 98.2391%	98.7016% and 97.4401%	1180 nM	IC50 (CYP1B1 S269A): 73 nM; Ratio IC50 (mutant)/ IC50 (WT), S269A (CYP1B1 S269A): 1; viability at 72 h, 3.33 μM [2]: 79.8%; viability at 72 h, 10 μM ([2]; Log Conc 1): 64.5%
